Results: patent US9540397B2, “BACE1 inhibitors” (Hoffmann-La Roche Inc., priority 2014, dated 2017)
pIC50: −log10 of the molar value.

How the values were obtained:
BACE1 = target: T1, BACE1 (Homo sapiens, UniProt P56817); assay: Cellular Aβ-lowering assay (Abeta 40 AlphaLISA, HEK293 APP cells); type: cell-based; conditions: 18-20 hrs incubation, Aβ40 in culture supernatant, read-out: BACE1 cell act. Aβ40 IC50
T1 construct: endogenous in cells; host or cells: HEK293 APP cells
In short: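 APP-expressing HEK293 cells exposed to compounds for 18-20 h at 37° C. (1% DMSO final). Secreted Aβ1-40 in supernatant measured by AlphaLISA (615 nm emission), expressed as percent of DMSO-only signal, and IC50 fitted.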

[1] = tested on: Aβ40 in brain of wild-type mice; assay: Lowering of Aβ40 in brain of wild-type mice; type: in vivo; conditions: Mus musculus, po; female C57Bl/6J mice, 30 mg/kg per os, 4 h; brain Aβ40 related to the value in the vehicle group; read-out: Aβ40 (wt mice, brain)

T1 sequence (P56817 46-501): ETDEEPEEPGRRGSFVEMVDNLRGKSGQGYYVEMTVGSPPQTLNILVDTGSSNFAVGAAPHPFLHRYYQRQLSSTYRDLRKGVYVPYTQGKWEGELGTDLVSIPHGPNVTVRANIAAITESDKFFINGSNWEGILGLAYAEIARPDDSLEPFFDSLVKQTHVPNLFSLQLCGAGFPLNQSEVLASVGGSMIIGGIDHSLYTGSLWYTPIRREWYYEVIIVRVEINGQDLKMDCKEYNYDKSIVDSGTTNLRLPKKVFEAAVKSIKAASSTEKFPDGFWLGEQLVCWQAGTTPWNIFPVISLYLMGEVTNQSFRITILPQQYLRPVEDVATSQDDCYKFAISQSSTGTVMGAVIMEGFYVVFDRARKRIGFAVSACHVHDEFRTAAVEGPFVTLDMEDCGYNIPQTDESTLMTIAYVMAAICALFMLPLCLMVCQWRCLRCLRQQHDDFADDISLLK

Structure (SMILES): COc1cnc(C(=O)Nc2ccc(F)c([C@@]3(C)N=C(N)C(C)(C)[S@]4(=O)=NCCC[C@H]34)n2)cn1 [Example 2BA, N-(6-((4aR,5R,9S)-7-amino-5,8,8-trimethyl-9-oxido-2,3,4,4a,5,8-hexahydro-[1,4]thiazino[2,1-f][1,2]thiazin-5-yl)-5-fluoropyridin-2-yl)-5-methoxypyrazine-2-carboxamide]
- pIC50 (BACE1): 7.66
- response vs control in vivo at 30 mg/kg [1]: 87%

Structure (SMILES): CC1(C)C(N)=N[C@](C)(c2nc(NC(=O)c3ccc(OCC(F)(F)C(F)F)cn3)ccc2F)[C@H]2CCCN=[S@@]21=O [Example 8AA, N-(6-((4aR,5R,9R)-7-amino-5,8,8-trimethyl-9-oxido-2,3,4,4a,5,8-hexahydro-[1,4]thiazino[2,1-f][1,2]thiazin-5-yl)-5-fluoropyridin-2-yl)-5-(2,2,3,3-tetrafluoropropoxy)picolinamide]
- pIC50 (BACE1): 7.45
- response vs control in vivo at 30 mg/kg [1]: 61%

Structure (SMILES): CC1(C)C(N)=N[C@](C)(c2nc(NC(=O)c3ccc(Cl)cn3)ccc2F)[C@H]2CC(F)(F)CN=[S@@]21=O [Example 43AA, N-(6-((4aR,5R,9R)-7-amino-3,3-difluoro-5,8,8-trimethyl-9-oxido-2,3,4,4a,5,8-hexahydro-[1,4]thiazino[2,1-f][1,2]thiazin-5-yl)-5-fluoropyridin-2-yl)-5-chloropicolinamide]
- pIC50 (BACE1): 7.25
- response vs control in vivo at 30 mg/kg [1]: 80%
